Measurements reported in patent US20180099937A1, “NOVEL ARYL-CYANOGUANIDINE COMPOUNDS” (Bayer Pharma Aktiengesellschaft, priority 2015, published 2018).

Molecular target: SMYD2 (Homo sapiens, UniProt Q9NRG4)
Test: Scintillation Proximity Assay (SPA) for detection of SMYD2 enzymatic inhibition
Format: biochemical
Parameters: The SMYD2 full length enzyme was produced in-house by expression (with an N-terminal 6× His tag) in E. coli; 6xHis (N); made in house; host or cells: E. coli
Conditions: SMYD2 full length enzyme, p53 Peptide substrate 1.0 μM, 3H-SAM 60 nM; read-out: IC50 [mol/l] (SPA Assay)
Source text: 1.1 Scintillation Proximity Assay (SPA) for Detection of SMYD2 Enzymatic Inhibition
SMYD2 inhibitory activities of the compounds described in the present invention were quantified using a scintillation proximity assay (SPA) which measures methylation by the enzyme of the synthetic, biotinylated peptide Btn-Ahx-[…]—Amid×TFA (Biosyntan) derived from p53 and referred to from here on as “p53 Peptide”. The SMYD2 full length enzyme was produced in-house by expression (with an N-terminal 6× His tag) in E. coli and purification by affinity chromatography on a Ni-NTA Sepharose column followed by a size exclusion chromatography step on a Superdex 200 16/60 column (GE Healthcare).
In a typical assay 11 different concentrations of each compound (0.1 nM, 0.33 nM, 1.1 nM, 3.8 nM, 13 nM, 44 nM, 0.15 μM, 0.51 μM, 1.7 μM, 5.9 μM and 20 μM) were tested in duplicate within the same microtiter plate. To this end, 100-fold concentrated compound solutions (in DMSO) were previously prepared by serial dilution (1:3.4) of 2 mM stocks in a clear low volume 384-well source microliter plate (Greiner Bio-One), from which 50 nl of compound solutions were transferred into a white low volume test microtiter plate from the same supplier. Subsequently, 2.5 μl SMYD2 in aqueous assay buffer [50 mM Tris/HCl pH 9.0 (AppliChem), 1 mM dithiothreitol (DTT, Sigma), 0.01% (w/v) bovine serum albumine (BSA, Sigma), 0.0022% (v/v) Pluronic (Sigma)] were added to the compounds in the test plate to a final enzyme concentration of —typically—3 nM (this parameter was adjusted depending on the activity of the enzyme lot in order to be within the linear dynamic range of the assay). The samples were then incubated for 15 min at 22° C. to allow pre-equilibration of the putative enzyme-inhibitor complexes before the start of the methylation reaction, which was initiated by the addition of 2.5 μl 2-fold concentrated solution (in assay buffer) of titriated S-Adenosyl-L-Methionine (3H-SAM, Perkin Elmer, final concentration: 60 nM) and p53 Peptide substrate (final concentration: 1.0 μM). The resulting mixture (5 μl final volume) was shortly centrifuged (2 min., 1500 rpm) and incubated at 22° C. during 30 min. Thereupon the reaction was stopped by adding 3 μl of Streptavidin PS SPA imaging beads (Perkin Elmer, final concentration of 3.12 μg/μl) and “cold” SAM (AK Scientific, 25 μM final concentration) for non-specific binding reduction. Plates containing the stopped reaction were sealed with transparent adhesive foil (Perkin Elmer), centrifuged (2 min., 1500 rpm), and further incubated for —at least—1 h at RT (or overnight at 4° C.) in order to allow the SPA signals to develop. Subsequently, the amount of product was evaluated by measuring the energy transfer from the β-particles emitted by the 3H-labeled substrate to the Europium scintillator co-polymerized in the polystyrene matrix of the PS imaging beads, using the standard settings for this purpose of a Viewlux (Perkin-Elmer) CCD plate imaging device (emission filter 613/55 (IFP). The resulting scintillation counts were taken as indicator for the amount of methylated peptide per well. The data were normalised using two sets of control wells (typically 16 each) for high−(=enzyme reaction with DMSO instead of test compound=0% =Minimum inhibition) and low−(=all assay components without enzyme=100% =Maximum inhibition) SMYD2 activity. IC50 values were calculated by fitting the normalized inhibition data to a 4-parameter logistic equation using the “Screener” analysis software from Genedata.

Sequence of SMYD2 (Q9NRG4 whole entry): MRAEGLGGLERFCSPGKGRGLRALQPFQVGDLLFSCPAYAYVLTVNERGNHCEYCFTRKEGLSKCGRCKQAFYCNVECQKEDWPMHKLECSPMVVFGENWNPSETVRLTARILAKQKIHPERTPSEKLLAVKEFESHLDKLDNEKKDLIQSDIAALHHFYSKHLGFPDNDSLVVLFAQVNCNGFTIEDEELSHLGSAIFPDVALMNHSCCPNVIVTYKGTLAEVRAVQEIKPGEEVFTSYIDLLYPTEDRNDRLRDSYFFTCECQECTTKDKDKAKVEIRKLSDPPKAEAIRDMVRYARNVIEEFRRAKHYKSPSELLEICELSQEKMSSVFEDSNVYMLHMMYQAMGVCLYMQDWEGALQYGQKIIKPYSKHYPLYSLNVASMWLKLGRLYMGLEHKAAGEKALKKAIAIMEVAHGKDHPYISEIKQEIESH

Row | IC50 | SMILES
1 | 2240 nM | CCN(C(=O)[C@H]1C[C@@H](O)CN1)C1CN(/C(=N\C#N)Nc2cccc(OC(F)F)c2)N=C1c1ccc(Cl)c(Cl)c1 (single isomer, unassigned) [Example 3.2]
2 | 39.9 nM | CCN(C(=O)[C@H]1C[C@@H](F)CN1)C1CN(/C(=N\C#N)Nc2cccc(OC(F)F)c2)N=C1c1ccc(Cl)c(Cl)c1 (single isomer, unassigned) [Example 4.1]
3 | 663 nM | CCN(C(=O)[C@H]1C[C@@H](F)CN1)C1CN(/C(=N\C#N)Nc2cccc(OC(F)F)c2)N=C1c1ccc(Cl)c(Cl)c1 (single isomer, unassigned) [Example 4.2]
4 | 576 nM | CCN(C(=O)c1cccc(=O)[nH]1)C1CN(/C(=N\C#N)Nc2cccc(OC(F)F)c2)N=C1c1ccc(Cl)c(Cl)c1 (single isomer, unassigned) [Example 5.1, N-[1-{N′-Cyrano-N-[3-(difluoromethoxy)phenyl]carbamimidoyl}-3-(3,4-dichlorophenyl)-4,5-dihydro-1H-pyrazol-1-yl]-N-ethyl-6-oxo-1,6-dihydropyridine-2-carboxamide]
5 | > 20000 nM | CCN(C(=O)c1cccc(=O)[nH]1)C1CN(/C(=N\C#N)Nc2cccc(OC(F)F)c2)N=C1c1ccc(Cl)c(Cl)c1 (single isomer, unassigned) [Example 5.2, N-[1-{N′-Cyano-N-[3-(difluoromethoxy)phenyl]carbamimidoyl}-3-(3,4-dichlorophenyl)-4,5-dihydro-1H-pyrazol-4-yl]-N-ethyl-6-oxo-1,6-dihydropyridine-2-carboxamide]
6 | 12 nM | C[C@]1(C(=O)NC2CN(/C(=N\C#N)Nc3cccc(OC(F)F)c3)N=C2c2ccc(Cl)c(Cl)c2)CCCN1 (single isomer, unassigned) [Example 6.1, N-[1-{N′-Cyano-N-[3-(difluoromethoxy)phenyl]carbamimidoyl}-3-(3,4-dichlorophenyl)-4,5-dihydro-1H-pyrazol-1-yl]-2-methyl-D-prolinamide]
7 | 237 nM | C[C@]1(C(=O)NC2CN(/C(=N\C#N)Nc3cccc(OC(F)F)c3)N=C2c2ccc(Cl)c(Cl)c2)CCCN1 (single isomer, unassigned) [Example 6.2, N-[1-{N′-Cyano-N-[3-(difluoromethoxy)phenyl]carbamimidoyl}-3-(3,4-dichlorophenyl)-4,5-dihydro-1H-pyrazol-4-yl]-2-methyl-D-prolinamide]

The remaining lines, values behind:

Row | SMILES | IC50
8 | CCN(C(=O)[C@H]1CCCN1)C1CN(/C(=N\C#N)Nc2cc(OC)ccc2C)N=C1c1ccc(Cl)c(Cl)c1 (mixture of isomers) [Example 34, N-{1-[N′-Cyano-N-(5-methoxy-2-methylphenyl)carbamimidoyl]-3-(3,4-dichlorophenyl)-4,5-dihydro-1H-pyrazol-4-yl}-N-ethyl-D-prolinamide] | 615 nM
9 | CCN(C(=O)[C@H]1CCCN1)C1CN(/C(=N\C#N)Nc2cccc(OCC(F)(F)F)c2)N=C1c1ccc(Cl)c(Cl)c1 (mixture of isomers) [Example 35, N-[1-{N′-Cyano-N-[3-(2,2,2-trifluorelethoxy)phenyl]carbamimidayl}-3-(3,4-dichlorophenyl)-4,5-dihydro-1H-pyrazol-4-yl]-N-ethyl-D-prolinamide] | 505 nM
10 | CCN(C(=O)[C@H]1CCCN1)C1CN(/C(=N\C#N)Nc2cccc(OC(F)F)c2)N=C1c1ccc(Cl)c(C)c1 (mixture of isomers) [Example 37, N-[3-(4-Chloro-3-methylphenyl)-1-{N′-cyano-N-[3-(difluoromethoxy)phenyl]carbamimidoyl}-4,5-dihydro-1H-pyrazol-4-yl]-N-ethyl-D-prolinamide] | 18.7 nM
11 | CCN(C(=O)[C@@H]1CCCC[C@@H]1N)C1CN(/C(=N\C#N)Nc2cccc(OC(F)F)c2)N=C1c1ccc(Cl)c(Cl)c1 (mixture of isomers) [Example 43, (1R,2S)-2-amino-N-[1-{N′-cyano-N-[3-(difluoromethoxy)phenyl]carbamimidoyl}-3-(3,4-dichlorophenyl)-4,5-dihydro-1H-pyrazol-4-yl]-N-ethylcyclohexanecarboxamide] | 432 nM
12 | CCN(C(=O)[C@@H]1CCC[C@@H]1N)C1CN(/C(=N\C#N)Nc2cc(OC)cc(C(F)(F)F)c2)N=C1c1ccc(Cl)c(Cl)c1 (mixture of isomers) [Example 45, (1R,2S)-2-Amino-N-[1-{N′-cyano-N-[3-methoxy-5-(trifluoromethyl)phenyl]carbamimidoyl}-3-(3,4-dichlorophenyl)-4,5-dihydro-1H-pyrazol-4-yl]-N-ethylcyclopentanecarboxamide] | 239 nM
13 | N#C/N=C(/Nc1cccc(OC(F)F)c1)N1CC(NC(=O)C(N)(C2CC2)C2CC2)C(c2ccc(Cl)c(Cl)c2)=N1 (racemic) [Example 8, rac-2-Amino-N-[1-{N′-cyano-N-[3-(difluoromethoxy)phenyl]carbamimidoyl}-3-(3,4-dichlorophenyl)-4,5-dihydro-1H-pyrazol-4-yl]-2,2-dicyclopropylacetamide] | 513 nM
14 | N#C/N=C(/Nc1cccc(OC(F)F)c1)N1CC(NC(=O)C2(N)CCC2)C(c2ccc(Cl)c(Cl)c2)=N1 (racemic) [Example 9, rac-1-Amino-N-[1-{N′-cyano-N-[3-(difluoromethoxy)phenyl]carbamimidoyl}-3-(3,4-dichlorophenyl)-4,5-dihydro-1H-pyrazol-4-yl]cyclobutanecarboxamide] | 603 nM
15 | N#C/N=C(/Nc1cccc(OC(F)F)c1)N1CC(NC(=O)C2(N)CCCC2)C(c2ccc(Cl)c(Cl)c2)=N1 (racemic) [Example 10, rac-1-Amino-N-[1-{N′-cyano-N-[3-(difluoromethoxy)phenyl]carbamimidoyl}-3-(3,4-dichlorophenyl)-4,5-dihydro-1H-pyrazol-4-yl]cyclopentanecarboxamide] | 748 nM
16 | N#C/N=C(/Nc1cccc(OC(F)F)c1)N1CC(NC(=O)C2(N)CCCCC2)C(c2ccc(Cl)c(Cl)c2)=N1 (racemic) [Example 11, rac-1-Amino-N-[1-{N′-cyano-N-[3-(difluoromethoxy)phenyl]carbamimidoyl}-3-(3,4-dichlorophenyl)-4,5-dihydro-1H-pyrazol-4-yl]cyclohexanecarboxamide] | 1330 nM
17 | CCN(C(=O)[C@H]1C[C@@H](F)CN1)C1CN(/C(=N\C#N)Nc2cc(F)cc(OC(F)(F)F)c2)N=C1c1ccc(Cl)c(Cl)c1 (mixture of isomers) [Example 25, (4R)-N-[1-{N′-Cyano-N-[3-fluoro-5-(trifluoromethoxy)phenyl]carbamimidayl}-3-(3,4-dichlorophenyl)-4,5-dihydro-1H-pyrazol-4-yl]-N-ethyl-4-fluoro-D-prolinamide] | 519 nM
18 | CCN(C(=O)[C@@H]1CCC[C@@H]1N)C1CN(/C(=N\C#N)Nc2cccc(OC(F)F)c2)N=C1c1ccc(Cl)c(Cl)c1 (relative stereo) [Example 42, Rel-(1R,2S)-2-amino-N-[1-{N′-cyano-N-[3-(difluoromethoxy)phenyl]carbamimidoyl}-3-(3,4-dichlorophenyl)-4,5-dihydro-1H-pyrazol-4-yl]-N-ethylcyclopentanecarboxamide] | 194 nM
19 | CCN(C(=O)[C@H]1CCCN1)C1CN(/C(=N\C#N)Nc2cccc(OC(F)F)c2)N=C1c1ccc(Cl)c(Cl)c1 (single isomer, unassigned) [Example 1.2, N-[1-{N′-Cyano-N-[3-(difluoromethoxy)phenyl]carbamimidoyl}-3-(3,4-dichlorphenyl)-4,5-dihydro-1H-pyrazol-4-yl]-N-ethyl-D-prolinamide] | 362 nM
